Assay results reported in doi:10.1101/2020.08.07.241463v2 (biorxiv, 2020).

Target: T1, OpuAC (free / soluble substrate-binding domain) (Lactococcus lactis, UniProt Q7DAU8, N367C/N423C)
T1 sequence (Q7DAU8 320-573 N367C/N423C): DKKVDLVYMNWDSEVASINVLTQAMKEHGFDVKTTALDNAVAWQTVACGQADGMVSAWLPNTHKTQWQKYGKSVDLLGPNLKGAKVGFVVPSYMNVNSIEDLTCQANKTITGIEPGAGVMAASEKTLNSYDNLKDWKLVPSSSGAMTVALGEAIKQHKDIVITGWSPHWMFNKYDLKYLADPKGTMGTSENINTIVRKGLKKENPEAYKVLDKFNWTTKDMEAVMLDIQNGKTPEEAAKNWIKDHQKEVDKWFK
Assay: smFRET

Kd: ~6 µM
SMILES: C[N+](C)(C)CC(=O)[O-] [GB, glycine betaine]
